For one assay, the system named is colorectal cancer. The following applies: combined with 5-fluorouracil and leucovorin; first-line treatment for colorectal cancer; cited from earlier work.
In assay [1] the test system is A549 lung adenocarcinoma xenografts. Briefly: Animal survival study in vivo, A549 lung adenocarcinoma xenograft model. The arrangement: species or system SCID beige mice. The method, then:
Partially fucosylated GlycArt-mAb was provided as stock solution (c=11.3 mg/ml), in a buffer containing histidine, trehalose and polysorbate 20. The antibody stock solution was appropriately diluted in PBS prior to injection.
The antibody concentration was adjusted by dilution of the reconstituted stock solution prior to injection.
Irinotecan/CPT-11 (Campto®) was purchased as clinical formulation (20 mg/ml) from Pfizer Pharma GmbH, Karlsruhe, Germany. The antibody concentration was adjusted by dilution of the reconstituted stock solution prior to injection.
A549 human Non Small Cell Lung Cancer (NSCLC) cells were obtained from ATCC. The tumor cell line was routinely cultured in RPMI medium (PAA Laboratories, Austria) supplemented with 10% fetal bovine serum (PAA Laboratories, Austria) and 2 mM L-glutamine, at 37° C. in a water-saturated atmosphere at 5% CO2.
Passage 3 of A549 cells was used for in vivo injection. 2×10^6 cells in PBS were injected intravenously (i.v.).
Female SCID beige mice; age 7-8 weeks at arrival (purchased from Charles River, Sulzfeld, Germany) were maintained under specific pathogen-free conditions with daily cycles of 12 h light/12 h darkness according to committed guidelines (GV-Solas; Felasa; TierschG). […]
The primary parameter was survival. The data was statistically analyzed by log rank test.

Consider `O=C1[O][Pt]2([NH][C@@H]3CCCC[C@H]3[NH]2)[O]C1=O` [oxaliplatin], for which the response rates with colorectal cancer was 25-40%.

As for `CCc1c2c(nc3ccc(OC(=O)N4CCC(N5CCCCC5)CC4)cc13)-c1cc3c(c(=O)n1C2)COC(=O)[C@]3(O)CC` [irinotecan], the “p (log rank test), survival compared to vehicle control” value in assay [1] (antibodies 25 mg/kg i.p. every seven days, irinotecan 20 mg/kg i.p. four times, single agents or combinations) is given as 0.017. For the same molecule, the “animal survival compared to vehicle control” value in assay [1] (single agents, antibodies 25 mg/kg i.p. every seven days (day 7-98), irinotecan 20 mg/kg i.p. day 7, 10, 14, 17, A549 cells injected i.v.) is given as “significantly prolonged animal survival”.

Values taken from US20100247533A1, “TREATMENT WITH A HUMANIZED ANTI-EGFR IgG1 ANTIBODY AND IRINOTECAN” (priority 2009, published 2010).
